According to US6177447A (Universiteit van Amsterdam, priority 1996, dated 2001):
pIC50, pKi: −log10 of the molar value. Several values for one entry are separate records, joined by “and”; a condition that tells them apart may be missing. Identical values can stand only once. Entries after “also recorded” stand apart in the source; their conditions may differ.

Key:
[1] = biological target: T1, glucosylceramide synthase (Homo sapiens, UniProt Q16739); test: glucosylceramide synthase activity in cultured macrophages with C6-NBD ceramide; type: cell-based; set-up: glucosylceramide synthase activity in cultured macrophages was also determined; endogenous in cells; host or cells: cultured human macrophages; settings: presence of PDMP or PPMP
T1 sequence (Q16739 1-394): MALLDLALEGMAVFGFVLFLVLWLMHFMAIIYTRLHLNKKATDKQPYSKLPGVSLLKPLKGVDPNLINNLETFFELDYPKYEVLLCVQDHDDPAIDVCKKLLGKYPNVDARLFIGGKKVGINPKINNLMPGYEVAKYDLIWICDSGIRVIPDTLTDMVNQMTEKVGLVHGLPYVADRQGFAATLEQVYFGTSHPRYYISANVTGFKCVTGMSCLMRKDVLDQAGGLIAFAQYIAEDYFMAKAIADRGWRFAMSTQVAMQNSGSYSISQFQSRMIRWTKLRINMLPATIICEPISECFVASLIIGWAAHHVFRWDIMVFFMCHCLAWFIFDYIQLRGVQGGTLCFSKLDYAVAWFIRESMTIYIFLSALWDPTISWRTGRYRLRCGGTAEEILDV

[2] = system: chitotriosidase; test: chitotriosidase secretion by cultured macrophages; type: cell-based, human
[3] = biological target: T2, lysosomal a-glucosidase (Homo sapiens, UniProt P10253); test: lysosomal a-glucosidase in cultured melanoma cells; type: cell-based; set-up: endogenous in cells; settings: at IC50 concentration for glucosylceramidase
[4] = biological target: T3, glycogen synthase (Rattus norvegicus, UniProt P17625); test: glycogen synthase in rat hepatocytes; type: cell-based; settings: at IC50 concentration for glucosylceramidase
T3 construct: endogenous in cells; host or cells: rat hepatocytes
T3 sequence (P17625 1-704): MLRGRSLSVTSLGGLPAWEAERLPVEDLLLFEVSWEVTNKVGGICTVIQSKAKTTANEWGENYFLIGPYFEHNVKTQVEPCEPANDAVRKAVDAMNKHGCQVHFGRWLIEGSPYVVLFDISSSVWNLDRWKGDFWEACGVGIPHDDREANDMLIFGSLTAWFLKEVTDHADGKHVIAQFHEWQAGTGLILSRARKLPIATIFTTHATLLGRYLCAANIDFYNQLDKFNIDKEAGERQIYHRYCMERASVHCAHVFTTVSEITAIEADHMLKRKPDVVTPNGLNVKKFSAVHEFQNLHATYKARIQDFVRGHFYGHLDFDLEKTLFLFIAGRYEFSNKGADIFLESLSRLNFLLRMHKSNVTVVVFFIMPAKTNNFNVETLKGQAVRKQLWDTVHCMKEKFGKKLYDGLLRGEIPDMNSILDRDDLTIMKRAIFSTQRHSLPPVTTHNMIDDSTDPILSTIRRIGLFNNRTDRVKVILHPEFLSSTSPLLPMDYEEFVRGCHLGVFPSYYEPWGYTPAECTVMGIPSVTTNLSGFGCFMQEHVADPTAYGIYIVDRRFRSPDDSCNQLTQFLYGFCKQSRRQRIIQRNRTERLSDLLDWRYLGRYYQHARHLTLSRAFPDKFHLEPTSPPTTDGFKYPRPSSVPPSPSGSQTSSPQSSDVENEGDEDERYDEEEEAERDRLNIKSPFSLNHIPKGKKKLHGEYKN

[5] = biological target: T4, glucosylceramidase (Homo sapiens, UniProt Q9HCG7); test: glucosylceramidase activity in intact melanoma cells (4MU-b-glucoside, conduritol B-epoxide insensitive); type: cell-based; set-up: endogenous in cells; settings: IC50 GLUCOSYLCERAMIDASE
T4 sequence (Q9HCG7 1-927): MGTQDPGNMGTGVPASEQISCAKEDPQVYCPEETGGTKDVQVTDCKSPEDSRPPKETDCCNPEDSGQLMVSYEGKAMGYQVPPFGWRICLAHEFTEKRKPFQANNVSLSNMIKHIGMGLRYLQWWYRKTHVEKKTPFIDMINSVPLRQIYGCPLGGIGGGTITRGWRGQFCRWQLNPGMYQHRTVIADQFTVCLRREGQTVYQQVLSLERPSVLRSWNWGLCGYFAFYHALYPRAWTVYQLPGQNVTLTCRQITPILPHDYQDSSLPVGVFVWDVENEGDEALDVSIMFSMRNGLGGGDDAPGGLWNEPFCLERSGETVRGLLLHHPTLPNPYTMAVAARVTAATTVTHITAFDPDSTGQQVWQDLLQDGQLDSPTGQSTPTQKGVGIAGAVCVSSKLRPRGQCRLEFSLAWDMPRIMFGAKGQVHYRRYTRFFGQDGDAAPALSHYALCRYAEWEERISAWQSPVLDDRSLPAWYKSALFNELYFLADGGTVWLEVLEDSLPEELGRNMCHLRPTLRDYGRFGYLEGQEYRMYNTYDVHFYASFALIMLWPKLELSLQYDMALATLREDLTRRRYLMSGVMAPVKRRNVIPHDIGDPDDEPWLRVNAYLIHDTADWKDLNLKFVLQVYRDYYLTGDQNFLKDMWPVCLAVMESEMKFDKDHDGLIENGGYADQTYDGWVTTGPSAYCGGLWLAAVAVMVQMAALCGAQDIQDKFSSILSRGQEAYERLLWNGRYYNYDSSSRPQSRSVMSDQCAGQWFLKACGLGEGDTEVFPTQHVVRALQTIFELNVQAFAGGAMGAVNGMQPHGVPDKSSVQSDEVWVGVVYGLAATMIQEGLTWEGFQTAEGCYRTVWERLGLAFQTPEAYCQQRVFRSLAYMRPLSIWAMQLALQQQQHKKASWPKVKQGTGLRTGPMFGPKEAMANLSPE

[6] = biological target: T5, glucocerebrosidase (Homo sapiens, UniProt P04062); test: glucocerebrosidase activity in intact melanoma cells (4MU-b-glucoside, conduritol B-epoxide sensitive); type: cell-based; set-up: the hydrolysis of 4MU-b-glucoside by cultured melanoma cells; endogenous in cells
T5 sequence (P04062 40-536): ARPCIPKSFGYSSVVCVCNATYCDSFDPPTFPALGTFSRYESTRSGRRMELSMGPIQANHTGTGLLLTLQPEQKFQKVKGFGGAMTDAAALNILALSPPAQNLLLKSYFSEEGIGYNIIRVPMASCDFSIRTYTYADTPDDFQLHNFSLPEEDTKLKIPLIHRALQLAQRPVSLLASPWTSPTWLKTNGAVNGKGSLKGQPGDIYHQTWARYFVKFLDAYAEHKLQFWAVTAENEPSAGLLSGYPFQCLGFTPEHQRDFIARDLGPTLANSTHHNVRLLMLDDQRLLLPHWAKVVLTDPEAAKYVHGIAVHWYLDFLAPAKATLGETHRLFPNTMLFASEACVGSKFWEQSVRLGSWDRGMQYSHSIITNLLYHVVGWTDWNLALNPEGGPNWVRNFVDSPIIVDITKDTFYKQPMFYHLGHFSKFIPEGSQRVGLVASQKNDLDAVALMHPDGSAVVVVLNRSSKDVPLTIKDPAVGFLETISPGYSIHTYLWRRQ

[7] = biological target: T6, glucocerebrosidase (Ceredase) (Homo sapiens, UniProt P04062); test: activity of soluble human placental glucocerebrosidase (Ceredase) towards 4MU-b-glucoside; type: biochemical
T6 construct: purchased Genzyme Corp. Boston,USA; host or cells: human placenta
T6 sequence (P04062 40-536): T5 sequence (P04062 40-536)

[8] = biological target: T5, glucocerebrosidase; test: conduritol B-epoxide inhibitable glucocerebrosidase activity in membrane fraction from human spleen; type: biochemical
[9] = biological target: T1, glucosylceramide synthase; test: glucosylceramide synthase activity in cultured melanoma cells; type: cell-based; settings: at IC50 concentration for glucosylceramidase
[10] = biological target: T2, lysosomal a-glucosidase; test: purified lysosomal a-glucosidase activity towards 4MU-a-glucoside; type: biochemical; settings: 4MU-a-glucoside, pH 4.0; read-out: apparent Ki A-GLUCOSIDASE
[11] = biological target: T4, glucosylceramidase; test: glucosylceramidase activity towards 4MU-b-glucoside in conduritol B-epoxide pre-treated membrane suspension from human spleen

Question: Which “inhibition of glucosylceramide synthase activity” value [1] does the source give for `CCCCCCCCCCCCCCCC(=O)NC(CN1CCOCC1)C(O)c1ccccc1` (centres unmarked) [PPMP, 1-phenyl-2-hexadecanoylamino-3-morpholino-1-propanol] here?
Answer: potently

Question: What about the “effect on chitotriosidase secretion” value ([2]; cultured macrophages, glucosylceramide synthase inhibited) of the same compound?
Answer: does not result in reduced; also recorded: without effect

Question: Which results are given for `OCC1C(O)C(O)C(O)CN1CCCCCOCC12CC3CC(CC(C3)C1)C2` (centres unmarked) [P21, N-(5-adamantane-1-yl-methoxy-pentyl) deoxynojirimycin]?
Answer: inhibition of lysosomal a-glucosidase [3]: no inhibition; inhibition of glycogen synthase [4]: no inhibition; activity at 2.5 pM ([2]; Homo sapiens, Macrophage, 96 h, 0.0025 nM, 4 days, relative to no inhibitor (100%)): 105%; activity at 50 pM ([2]; Homo sapiens, Macrophage, 96 h, 0.05 nM, 4 days, relative to no inhibitor (100%)): 72%; activity at 0.001 µM ([2]; Homo sapiens, Macrophage, 96 h, 1 nM, 4 days, relative to no inhibitor (100%)): 64%

Question: With `CC(C)CCC[C@@H](C)[C@H]1CC[C@H]2[C@@H]3CC=C4C[C@@H](OCCCCCN5C[C@H](O)[C@@H](O)[C@H](O)[C@H]5CO)CC[C@]4(C)[C@H]3CC[C@]12C` [P24, N-(5-cholesteroloxy-pentyl)-deoxynojirimycin] as the compound, how does the pIC50 [5] read?
Answer: 7.30 and ~7.30

Question: What about the “inhibition of lysosomal a-glucosidase” value [3] of the same compound?
Answer: no inhibition

Question: And the “inhibition of glycogen synthase” value [4]?
Answer: no inhibition

Question: What about the pIC50 [6] of the same compound?
Answer: 6.10

Question: And the “inhibition of glucocerebrosidase activity” value ([6]; melanoma cells, at IC50 for glucosylceramidase or ten-fold higher concentrations)?
Answer: no significant inhibition

Question: What about the pIC50 [7] of the same compound?
Answer: 6.10

Question: What about the pKi ([7]; soluble enzyme, 0.25% sodium taurocholate, 0.1% Triton X-100, pH 5.2, read-out: apparent Ki GLUCOCEREBROSIDASE CEREDASE) of the same compound?
Answer: 6.02

Question: What about the pIC50 [8] of the same compound?
Answer: 6.15

Question: What about the pKi ([8]; membrane suspension, 4MU-b-glucoside, pH 5.2, read-out: apparent Ki GLUCOCEREBROSIDASE MEMBRANES) of the same compound?
Answer: 6.11

Question: And the “inhibition of glucosylceramide synthase activity” value [9]?
Answer: no inhibition

Question: What about the pKi [10] of the same compound?
Answer: 5.14

Question: What about the pIC50 [11] of the same compound?
Answer: 7.00

Question: What about the pKi [11] of the same compound?
Answer: 7.01
